In article PMC8592419 (PLoS ONE, 2021):
Blank lines part the entries; values can stand above or below the compound they belong to. Where a SMILES comes first, the peptide text is derived from it.

Assays:
[1] = system: M. abscessus clinical isolate MAB03; assay: microbe, parasite or virus in culture; type: cell-based, M. abscessus subsp. abscessus
Procedure: (§1) Mab suspensions at a 5×10^5 CFU/ml final concentration were added to each well and incubated for 3 days and 14 days at 37°C. MIC values were defined when the percent killing of CFUs of more than 90% were compared to the media controls without AMPs or drugs. The fraction inhibitory concentration index (FICI) was calculated using the following formula: FICI = [C(MIC^A)/MIC^A] + [C(MIC^B)/MIC^B]. […] For interpretation, FICI ≤ 0.5 was interpreted as synergism, FICI >0.5–1.0 was interpreted as additive, FICI >1.0–4.0 was interpreted as indifferent and FICI >4.0 was interpreted as antagonism.

[2] = system: M. abscessus clinical isolate MAB10; assay: microbe, parasite or virus in culture; type: cell-based, M. abscessus subsp. abscessus
Procedure: as §1

[3] = system: M. abscessus clinical isolate MAB01; assay: microbe, parasite or virus in culture; type: cell-based, M. abscessus subsp. abscessus
Procedure: as §1

[4] = system: M. abscessus clinical isolate MAB05; assay: microbe, parasite or virus in culture; type: cell-based, M. abscessus subsp. abscessus
Procedure: as §1

[5] = system: M. abscessus clinical isolate MAB02; assay: microbe, parasite or virus in culture; type: cell-based, M. abscessus subsp. abscessus
Procedure: as §1

[6] = system: M. abscessus clinical isolate MAB09; assay: microbe, parasite or virus in culture; type: cell-based, M. abscessus subsp. abscessus
Procedure: as §1

[7] = system: M. abscessus clinical isolate MAB11; assay: microbe, parasite or virus in culture; type: cell-based, M. abscessus subsp. abscessus
Procedure: as §1

[8] = system: M. abscessus clinical isolate MAB07; assay: microbe, parasite or virus in culture; type: cell-based, M. abscessus subsp. abscessus
Procedure: as §1

[9] = system: M. abscessus clinical isolate MAB14; assay: microbe, parasite or virus in culture; type: cell-based, M. abscessus subsp. massiliense
Procedure: as §1

[10] = system: M. abscessus clinical isolate MAB12; assay: microbe, parasite or virus in culture; type: cell-based, M. abscessus subsp. massiliense
Procedure: as §1

[11] = system: sixteen clinical Mab isolates; assay: 24-hour bactericidal activity assay, summary over isolates; type: cell-based, Mycobacterium abscessus; conditions: majority of the tested strains (10/16 isolates); equivalent of <50 μg/ml
Procedure: (§2) Briefly, serial dilutions of the AMPs were prepared with potassium phosphate buffer (PPB) from the concentration range of 3.125 to 400 μg/ml and then 50 μl of each dilution were added to each 96-well plate. Colonies of the isolate were suspended and then further diluted in Mueller-Hinton broth to obtain a final concentration of 1×10^3 CFU/ml (optimized according to the available AMP stock concentration). Fifty microliters of this inoculum were added to each well of the plates. The plates were incubated for 3 days at 37°C. Plain media and bacterial suspensions without AMPs were used as negative and positive controls. The MIC values were read and recorded. All assays were performed in duplicate and two independent experiments.
Potential AMPs from the screening assays were subjected to determine the 24-hour bactericidal activity assays (corresponding to the common time of administration) with sixteen clinical Mab isolates using the protocol as described above. To observe the early antimicrobial activities, the plates were incubated for 24 h at 37°C. The samples from each well were further diluted in 0.05% Tween 80 and inoculated on Mueller-Hinton agar. After incubation for 3 days at 37°C, the colony-forming units (CFUs) were counted and calculated for the percentage of killing using the following formula: % killing = 1 - (CFU sample/ CFU control) ×100.

[12] = system: M. abscessus clinical isolate MAB16; assay: In vitro antimicrobial susceptibility of potential AMPs, broth microdilution, 3 days; type: cell-based, M. abscessus subsp. massiliense; conditions: 3 days at 37°C
Procedure: as §2
(§3) For the in vitro antimicrobial susceptibility, the same protocol as described above was used. The culture plates were further incubated up to 3 days at 37°C. The MIC values were read and recorded.

[13] = system: M. abscessus clinical isolate MAB13; type: cell-based, M. abscessus subsp. massiliense; conditions: 3 days at 37°C
Procedure: as §2, §3

[14] = system: human red blood cells (RBCs); assay: Hemolytic toxicity test; type: cell-based; conditions: human RBCs, 1 h at 37°C, mean±SD of duplicates, two independent experiments
Procedure: For the hemolytic toxicity test, red blood cells (RBCs) from fresh blood samples of healthy volunteers were obtained by centrifugation at 1,000 rpm for 5 min. The cells were washed three times with sterile phosphate buffered saline (PBS) and adjusted into 1×10^8 cells/ml. AMPs were diluted with PPB in ranging from 6.25 to 400 μg/ml. Fifty microliters of the RBC suspensions and 50 μl of AMP solutions were added to 1.5 ml sterile microtubes, incubated for 1 h at 37°C and then centrifuged at 1,000 rpm for 5 min. The supernatants were transferred to new 96-well microtiter plates for measurement of the absorbance at 540 nm using a microplate reader. RBC suspensions treated with 2% (v/v) Triton X-100 and PBS solution were used as positive and negative controls. The percentages of hemolysis were calculated using the following formula: % of RBC lysis = 100 × [(Test—PBS) / (Positive control—PBS)]. All assays were performed in duplicate and two independent experiments.

[15] = system: M. abscessus clinical isolate MAB06; type: cell-based, M. abscessus subsp. abscessus; conditions: 3 days at 37°C
Procedure: as §2, §3

[16] = Mycobacteroides abscessus, read-out: MIC of CLA

MIC of CLA, combined CLA + S61 ([1]; MAB03, checkerboard, in combination with S61): 2 µg/mL
MIC of CLA, combined CLA + S62 ([1]; MAB03, checkerboard, in combination with S62): 1.5 µg/mL
MIC of CLA, combined CLA + S63 ([1]; MAB03, checkerboard, in combination with S63): 4 µg/mL
MIC [1, 16]: 8 µg/mL
MIC of CLA, combined CLA + S61 ([2]; MAB10, checkerboard, in combination with S61): 32 µg/mL
MIC of CLA, combined CLA + S62 ([2]; MAB10, checkerboard, in combination with S62): 32 µg/mL
MIC of CLA, combined CLA + S63 ([2]; MAB10, checkerboard, in combination with S63): 8 µg/mL
MIC [2, 16]: 1020 µg/mL
MIC of CLA, combined CLA + S61 ([3]; MAB01, checkerboard, in combination with S61): 32 µg/mL
MIC of CLA, combined CLA + S62 ([3]; MAB01, checkerboard, in combination with S62): 96 µg/mL
MIC [3, 16]: 1020 µg/mL
MIC of CLA, combined CLA + S61 ([4]; MAB05, checkerboard, in combination with S61): 16 µg/mL
MIC of CLA, combined CLA + S62 ([4]; MAB05, checkerboard, in combination with S62): 16 µg/mL
MIC of CLA, combined CLA + S63 ([4]; MAB05, checkerboard, in combination with S63): 16 µg/mL
MIC [4, 16]: 16 µg/mL
MIC of CLA, combined CLA + S61 ([5]; MAB02, checkerboard, in combination with S61): 64 µg/mL
MIC of CLA, combined CLA + S62 ([5]; MAB02, checkerboard, in combination with S62): 64 µg/mL
MIC of CLA, combined CLA + S63 ([5]; MAB02, checkerboard, in combination with S63): 64 µg/mL
MIC [5, 16]: 64 µg/mL
MIC of CLA, combined CLA + S61 ([6]; MAB09, checkerboard, in combination with S61): 8 µg/mL
MIC of CLA, combined CLA + S62 ([6]; MAB09, checkerboard, in combination with S62): 6 µg/mL
MIC of CLA, combined CLA + S63 ([6]; MAB09, checkerboard, in combination with S63): 4 µg/mL
MIC [6, 16]: 8 µg/mL
MIC of CLA, combined CLA + S61 ([7]; MAB11, checkerboard, in combination with S61): 128 µg/mL
MIC of CLA, combined CLA + S62 ([7]; MAB11, checkerboard, in combination with S62): 192 µg/mL
MIC of CLA, combined CLA + S63 ([7]; MAB11, checkerboard, in combination with S63): 192 µg/mL
MIC [7, 16]: 512 µg/mL
MIC of CLA, combined CLA + S61 ([8]; MAB07, checkerboard, in combination with S61): 0.25 µg/mL
MIC of CLA, combined CLA + S62 ([8]; MAB07, checkerboard, in combination with S62): 0.25 µg/mL
MIC of CLA, combined CLA + S63 ([8]; MAB07, checkerboard, in combination with S63): 0.25 µg/mL
MIC [8, 16]: 16 µg/mL
MIC of CLA, combined CLA + S61 ([9]; MAB14, checkerboard, in combination with S61): 4 µg/mL
MIC of CLA, combined CLA + S62 ([9]; MAB14, checkerboard, in combination with S62): 4 µg/mL
MIC of CLA, combined CLA + S63 ([9]; MAB14, checkerboard, in combination with S63): 32 µg/mL
MIC [9, 16]: 512 µg/mL
MIC of CLA, combined CLA + S61 ([10]; MAB12, checkerboard, in combination with S61): 1,024 μg/ml
MIC of CLA, combined CLA + S62 ([10]; MAB12, checkerboard, in combination with S62): 1,024 μg/ml
MIC of CLA, combined CLA + S63 ([10]; MAB12, checkerboard, in combination with S63): 1,024 μg/ml
MIC [10, 16]: 1020 µg/mL
Compound: CC[C@H]1OC(=O)[C@H](C)[C@@H](O[C@H]2C[C@@](C)(OC)[C@@H](O)[C@H](C)O2)[C@H](C)[C@@H](O[C@@H]2O[C@H](C)C[C@H](N(C)C)[C@H]2O)[C@](C)(OC)C[C@@H](C)C(=O)[C@H](C)[C@@H](O)[C@]1(C)O [CLA, Clarithromycin]

Compound: CC[C@H](C)[C@H](NC(=O)[C@H](CCCCN)NC(=O)[C@H](CCCNC(=N)N)NC(=O)CNC(=O)[C@H](CC(C)C)NC(=O)[C@H](CO)NC(=O)[C@H](CCCNC(=N)N)NC(=O)[C@H](CC(C)C)NC(=O)CNC(=O)CN)C(=O)N[C@@H](CC(C)C)C(=O)N[C@@H](CCCNC(=N)N)C(=O)N[C@@H](C)C(=O)N[C@@H](Cc1c[nH]c2ccccc12)C(=O)N[C@@H](CCCCN)C(=O)N[C@@H](CCCCN)C(=O)N[C@@H](Cc1ccc(O)cc1)C(=O)O [S61] (H-GGLRSLGRKILRAWKKY-OH)
MIC with ~99% killed within 24 h, in μM [11]: less than 24.97 μM
FICI ([1]; MAB03, AMP + CLA, mean ± S.D., two independent experiments): 0.28±0.00
MIC, AMP alone ([1]; MAB03, AMP alone): 6.25 µg/mL
FICI ([2]; MAB10, AMP + CLA, mean ± S.D., two independent experiments): 0.05±0.00
MIC, AMP alone ([2]; MAB10, AMP alone): >400 µg/mL
FICI ([3]; MAB01, AMP + CLA, mean ± S.D., two independent experiments): 0.41±0.17
FICI ([4]; MAB05, AMP + CLA, mean ± S.D., two independent experiments): 1.01±0.00
MIC, AMP alone ([4]; MAB05, AMP alone): >400 µg/mL
FICI ([5]; MAB02, AMP + CLA, mean ± S.D., two independent experiments): 1.02±0.00
MIC, AMP alone ([5]; MAB02, AMP alone): >400 µg/mL
FICI ([6]; MAB09, AMP + CLA, mean ± S.D., two independent experiments): 1.01±0.00
MIC, AMP alone ([6]; MAB09, AMP alone): >400 µg/mL
FICI ([7]; MAB11, AMP + CLA, mean ± S.D., two independent experiments): 0.67±0.08
MIC, AMP alone ([7]; MAB11, AMP alone): >400 µg/mL
FICI ([8]; MAB07, AMP + CLA, mean ± S.D., two independent experiments): 0.03±0.00
MIC, AMP alone ([8]; MAB07, AMP alone): >400 µg/mL
Antimicrobial peptides against M. abscessus isolates, MIC value [12]: >400 µg/mL
Antimicrobial peptides against M. abscessus isolates, MIC value [13]: >400 µg/mL
FICI ([9]; MAB14, AMP + CLA, mean ± S.D., two independent experiments): 0.10±0.04
MIC, AMP alone ([9]; MAB14, AMP alone): >400 µg/mL
FICI ([10]; MAB12, AMP + CLA, mean ± S.D., two independent experiments): 1.01±0.00
MIC, AMP alone ([10]; MAB12, AMP alone): >400 µg/mL
Hemolytic activities (%hemolysis) ([14]; 6.25 µg/mL): -0.18±0.75%
Hemolytic activities (%hemolysis) ([14]; 12.5 µg/mL): 4.58±4.48%
Hemolytic activities (%hemolysis) ([14]; 25 µg/mL): 6.34±4.98%
Hemolytic activities (%hemolysis) ([14]; 50 µg/mL): 9.15±1.99%
Hemolytic activities (%hemolysis) ([14]; 100 µg/mL): 10.74±0.75%
Hemolytic activities (%hemolysis) ([14]; 200 µg/mL): 11.44±0.25%
Hemolytic activities (%hemolysis) ([14]; 400 µg/mL): 13.03±0.00%
Antimicrobial peptides against M. abscessus isolates, MIC value [15]: >400 µg/mL
